This note sets out measurements from US20070264355A1, “BINARY COMPOSITIONS AND METHODS FOR STERILIZATION” (Binary, LLC, priority 2005, published 2007).

The assay deals with Escherichia coli (ATCC 25922). Briefly: Microbicidal activity against Escherichia coli (suspension test, surviving CFU). The format is cell-based. Particulars: inoculum 1630000 CFU. The source says:
Each solution was used alone for the individual controls. Organism suspensions were used to achieve a final target concentration of 2-3×10^6 CFU per ml. For the binary system treatments, sodium hypochlorite solution and hydrogen peroxide solution, non-acidified or acidified, were sequentially added to the microorganisms. Acidified hydrogen peroxide solution was obtained by the addition of 1.0% v/v of 0.001 N hydrochloride solution. After each addition, the resulting mixture was allowed to remain in contact with the organisms for a set amount of time at room temperature (about 22° C.), as listed in the Tables 1 and 2. At the end of the treatment time, the mixtures were neutralized with 200 to 500 microliters of thiosulfate solution (2.4%) to quench the activity of sodium hypochlorite and then treated with 100 to 200 microliters of a 1% catalase solution, containing a minimum of 100 units/ul, to quench the hydrogen peroxide activity. If needed, an appropriate volume of sterile saline was added to bring the final volume of reaction mixture to 1.4 ml after neutralization. Serial dilution plate counts were performed from the contents of each vial in sterile saline and inoculated onto TSA for quantitative culture. Plates were then incubated at 37° C. and counts taken at 24 hours. […]

`[Na+].[O-]Cl` [NaOCl, sodium hypochlorite]: the “Log 10 (CFU + 1) Survivors” value is listed as 6.1 (NaOCl 0.01 mM 15 min), 5.9 (NaOCl 0.02 mM 15 min) and 3.0 (NaOCl 0.03 mM 15 min). The “Total Viability (CFU)” value is, setting by setting: (NaOCl 0.01 mM 15 min) 1218000 CFU; (NaOCl 0.02 mM 15 min) 784000 CFU; (NaOCl 0.03 mM 15 min) 994 CFU.
